Here are results for two compounds from patent US20200339625A1, “NOVEL RADIOMETAL-BINDING COMPOUNDS FOR DIAGNOSIS OR TREATMENT OF PROSTATE SPECIFIC MEMBRANE ANTIGEN-EXPRESSING CANCER” (PROVINCIAL HEALTH SERVICES AUTHORITY, priority 2017, published 2020).

Each structure is given as a SMILES string.

Data set [1] in a line: Radiation dosimetry calculation (OLINDA), 25-g mouse. How it is done:
1.18 Radiation Dosimetry Calculation
Internal dosimetry estimates were calculated using the organ level internal dose assessment (OLINDA) software v.2.0.^37 These estimates were performed for the mouse using the 25 g MOBY phantom,^38 for humans using the NURBS model for the adult male,^39 and for the tumors using the previously reported unit density sphere model.^40 All the phantoms and the sphere model are available in OLINDA and require the input of the total number of decays normalized by injected activity in units of MBq×h/MBq for each of the source organ/tumor.
The biodistribution data (available in the Tables 1 and 2, below) was used to determine the kinetics input values required by OLINDA. First, each of the values was decayed to its corresponding time point (the values on the table are shown at injection time). Then the different time-points of the uptake data (% ID/g) for each organ were fitted to both mono-exponential
functions using in-house software developed in Python. The best fit was selected based on maximizing the coefficient of determination (R2) of the fit and minimizing the residuals. The areas under the curves were analytically calculated based on the parameters obtained from the best fit of each organ and this provided the kinetic input values required by OLINDA.
In the mouse case, the adrenals, blood, fat, muscle, and seminal vesicles are not modeled in the phantom. These organs were grouped together and included in what OLINDA calls the remainder of the body.

Data set [2] has as its system metastatic prostate cancer. Particulars: cited from earlier work.
The subject of data set [3] is PSMA-expressing PC-3 PIP tumors. The settings on record: 5 MBq; cited from earlier work.
The mark [4] stands for this setting: source organ Large intestine contents.
[5] abbreviates: source organ Remainder of the body.
[6] abbreviates: source organ Urinary bladder contents.

For the compound `O=C([O-])CN1CCN(CC(=O)[O-])CCN(CC(=O)NCC2CCC(C(=O)N[C@@H](Cc3ccc4ccccc4c3)C(=O)NCCCC[C@H](NC(=O)N[C@@H](CCC(=O)O)C(=O)O)C(=O)O)CC2)CCN(CC(=O)[O-])CC1.[177Lu+3]` (stereo partly shown) [^177Lu-PSMA-617, reference compound], the Kinetics value in data set [1] (source organ Brain) is listed as 6.96E−03 MBq-h/MBq; in data set [1] (source organ Cortical bone), 9.96E−02 MBq-h/MBq; in data set [1] (source organ Heart contents) it was 4.21E−03 MBq-h/MBq; in data set [1] (source organ Kidneys) it was 1.13E+00 MBq-h/MBq; in data set [1] (setting [4]), 1.74E−02 MBq-h/MBq; in data set [1] (source organ Liver) it was 6.54E−02 MBq-h/MBq. Besides, the Kinetics value in data set [1] (source organ Lungs) is recorded as 5.10E−03 MBq-h/MBq; in data set [1] (source organ Pancreas), 5.44E−03 MBq-h/MBq; in data set [1] (setting [5]), 6.82E−01 MBq-h/MBq; in data set [1] (source organ Small intestine), 5.20E−02 MBq-h/MBq; in data set [1] (source organ Spleen), 1.50E−02 MBq-h/MBq; in data set [1] (source organ Stomach contents), 5.42E−03 MBq-h/MBq. The figures for the Kinetics value in data set [1] (source organ Testes) and in data set [1] (setting [6]) were 4.96E−03 MBq-h/MBq and 1.10E+00 MBq-h/MBq, respectively. The complete response rate in data set [2] (human, in vivo) was under 7%. The “patients with progressive disease after treatment” value in data set [2] (human, in vivo) is listed as “up to 33%”. The side effects entry in data set [2] (human, in vivo) is “without severe side effects”. Further, the “patients having >50% reduction in PSA levels” value in data set [2] (metastatic prostate cancer) is reported as 32-60%. In addition, the objective response in data set [2] (phase 2 Australian study, patients with measurable nodal or visceral disease) is given as 82%. For the same compound, in data set [3], the Median survival is given as 32 days.

For `O=C([O-])CN1CCN(CC(=O)[O-])CCN(CC(=O)NCCCC[C@H](NC(=O)[C@H](CCC(=O)O)NC(=O)CCCc2ccc(I)cc2)C(=O)NC[C@H]2CC[C@H](C(=O)N[C@@H](Cc3ccc4ccccc4c3)C(=O)NCCCC[C@H](NC(=O)N[C@@H](CCC(=O)O)C(=O)O)C(=O)O)CC2)CCN(CC(=O)[O-])CC1.[177Lu+3]` [^177Lu-HTK01169], the Kinetics value is on record as 3.21E−02 MBq-h/MBq in data set [1] (source organ Brain); 5.48E−01 MBq-h/MBq in data set [1] (source organ Cortical bone); 1.66E−01 MBq-h/MBq in data set [1] (source organ Heart contents); 1.94E+01 MBq-h/MBq in data set [1] (source organ Kidneys); 2.25E−01 MBq-h/MBq in data set [1] (setting [4]); 1.41E+00 MBq-h/MBq in data set [1] (source organ Liver). Also, the Kinetics value in data set [1] (source organ Lungs) is given as 1.28E−01 MBq-h/MBq; in data set [1] (source organ Pancreas), 1.30E−01 MBq-h/MBq; in data set [1] (setting [5]), 1.73E+01 MBq-h/MBq; in data set [1] (source organ Small intestine) it was 6.73E−01 MBq-h/MBq; in data set [1] (source organ Spleen), 4.38E−01 MBq-h/MBq; in data set [1] (source organ Stomach contents), 1.54E−02 MBq-h/MBq. Moreover, the Kinetics value in data set [1] (source organ Testes) was 1.66E−01 MBq-h/MBq; in data set [1] (setting [6]), 6.02E−01 MBq-h/MBq.
